These results are taken from patent US8956824B2, “Methods for identifying allosteric modulators of ship polypeptides” (British Columbia Cancer Agency Branch, priority 2006, dated 2015).

In test [1] the test system is SHIP1+/+ and SHIP1−/− BMMCs. The experiment in a line: IgE+antigen-induced calcium flux in BMMCs. In kind it is cell-based, mouse. The settings on record: 30 min pretreatment, DNP-HSA stimulation. The method, then:
Production of SHIP+/+ and SHIP−/− BMMCs and BMnφs. To obtain BMMCs, bone marrow cells were aspirated from 4 to 8 week old C57B16×129Sv mixed background mice and SHIP1+/+ and SHIP1−/− BMMCs prepared as described previously (17). After 8 weeks in IMDM+15% FCS (StemCell Technologies, Vancouver, Canada)+150 μM MTG+30 ng/ml IL-3 (BMMC medium) more than 99% of the cells were c-kit and FcεR1 positive as determined by flow cytometry with FITC-labeled anti-c-kit (BD Pharmingen, Mississauga, Canada) and FITC-labeled IgE (anti-Epo), respectively. BMmφs from SHIP1+/+ and SHIP1−/− mice were obtained and maintained in IMDM supplemented with 10% FCS, 150 μM MTG, 2% C127 cell conditioned medium as a source of macrophage colony stimulating factor (MCSF) (BMmφ medium).
Stimulation of BMMCs by FcεR1 crosslinking. SHIP1+/+ and SHIP1−/− BMMCs were pre-loaded overnight in BMMC medium lacking IL-3 with 0.1 μg/ml anti-DNP IgE (SPE-7, Sigma, Oakville, Ont). […] Calcium influx was then monitored by spectrofluorometry as described previously (19). […] Total cell lysates were then prepared and analyzed for phospho-PKB, phospho-p38MAPK, phospho-MAPK, Grb-2 (Cell Signalling, Mississauga, Ont) and SHIP1 (18) by immunoblot analysis as described previously (20). […]
For orientation: Calcium flux is commonly read through the fluorescence of an indicator in the cells.

For test [2], the system named is SHIP1+/+ and SHIP1−/− BMMCs. Nature of the test: Intracellular signaling after FcεR1 crosslinking in BMMCs (immunoblot). Type of test: cell-based, mouse. Conditions: 10 μg/ml, 30 min; 20 ng/ml DNP-HSA 5 min. The method, then:
Stimulation of BMMCs by FcεR1 crosslinking. SHIP1+/+ and SHIP1−/− BMMCs were pre-loaded overnight in BMMC medium lacking IL-3 with 0.1 μg/ml anti-DNP IgE (SPE-7, Sigma, Oakville, Ont). For calcium flux measurements, the cells were incubated with 2 μM fura 2-acetoxymethyl ester (Molecular Probes, Eugene, Oreg.) in Tyrode's buffer at 23° C. for 45 min. The cells were then washed and incubated in the presence of vehicle control, LY294002 or AQX-016A 30 min prior to stimulation with the indicated concentration of DNP-human serum albumin (DNP-HSA). Calcium influx was then monitored by spectrofluorometry as described previously (19). Experiments were repeated at least 3 times. For analysis of intracellular signaling, cells were pre-loaded with anti-DNP IgE as above, pre-treated with AQX-016A or buffer control for 30 min at 37° C. and stimulated with 20 ng/ml DNP-HSA for 5 min. Total cell lysates were then prepared and analyzed for phospho-PKB, phospho-p38MAPK, phospho-MAPK, Grb-2 (Cell Signalling, Mississauga, Ont) and SHIP1 (18) by immunoblot analysis as described previously (20). Results are representative of 3 independent experiments.

The next test has as its target T1, wild-type SHIP1 enzyme (Mus musculus, UniProt Q9ES52).
T1 construct: Full length, wild-type SHIP1 enzyme (wt); made in house; host or cells: 293T cells, transient transfection with pME18S-His-SHIP
T1 sequence (Q9ES52 1-1191): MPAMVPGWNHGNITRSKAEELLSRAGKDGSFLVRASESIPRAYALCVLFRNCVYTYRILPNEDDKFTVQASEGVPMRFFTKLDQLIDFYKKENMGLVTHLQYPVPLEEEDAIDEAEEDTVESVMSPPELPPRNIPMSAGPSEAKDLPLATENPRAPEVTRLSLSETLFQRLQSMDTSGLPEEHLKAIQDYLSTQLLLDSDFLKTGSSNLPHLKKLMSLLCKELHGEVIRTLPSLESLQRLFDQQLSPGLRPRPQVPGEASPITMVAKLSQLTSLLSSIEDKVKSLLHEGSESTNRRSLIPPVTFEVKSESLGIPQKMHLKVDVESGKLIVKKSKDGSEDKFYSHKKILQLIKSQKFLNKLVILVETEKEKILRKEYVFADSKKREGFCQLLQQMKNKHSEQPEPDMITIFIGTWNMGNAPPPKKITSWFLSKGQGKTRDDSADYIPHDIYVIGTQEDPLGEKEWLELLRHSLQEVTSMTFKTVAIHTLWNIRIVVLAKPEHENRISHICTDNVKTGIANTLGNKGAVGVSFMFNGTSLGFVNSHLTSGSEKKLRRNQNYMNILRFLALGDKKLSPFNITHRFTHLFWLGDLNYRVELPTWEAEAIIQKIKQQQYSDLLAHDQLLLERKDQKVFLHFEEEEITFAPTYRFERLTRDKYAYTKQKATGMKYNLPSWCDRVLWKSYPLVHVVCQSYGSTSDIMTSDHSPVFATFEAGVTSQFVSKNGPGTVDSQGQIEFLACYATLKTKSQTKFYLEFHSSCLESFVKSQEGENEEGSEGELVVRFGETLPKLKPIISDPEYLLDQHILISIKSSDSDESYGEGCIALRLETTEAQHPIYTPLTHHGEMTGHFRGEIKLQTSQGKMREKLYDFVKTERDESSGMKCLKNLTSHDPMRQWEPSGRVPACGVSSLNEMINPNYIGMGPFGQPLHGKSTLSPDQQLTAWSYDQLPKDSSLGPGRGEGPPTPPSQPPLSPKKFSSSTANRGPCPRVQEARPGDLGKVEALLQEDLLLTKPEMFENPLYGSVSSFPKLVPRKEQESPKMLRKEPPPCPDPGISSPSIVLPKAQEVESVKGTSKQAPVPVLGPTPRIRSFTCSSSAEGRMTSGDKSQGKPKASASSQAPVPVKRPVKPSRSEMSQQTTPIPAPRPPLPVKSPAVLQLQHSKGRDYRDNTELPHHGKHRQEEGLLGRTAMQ
Nature of the test: Scintillation proximity assay, wild-type SHIP1. In kind it is binding. Conditions: 5 μCi. The method, then: Scintillation Proximity Assays AQX-MN100 was radiolabeled with tritium by GE Healthcare (Piscataway, N.J.) to a specific activity of 42 Ci/mmole. Copper chelate (His-Tag) YSi YSi SPA Scintillation Beads (GE Healthcare ,Piscataway, NJ) were diluted in 0.25% BSA/TBS to 1.5 mg/mL and recombinant, His6-tagged protein added at the indicated concentrations: wild-type (1 pM), ΔC2 SHIP enzyme (1 pM) or C2 domain (10 nM). Protein was allowed to bind 1 h at 23° C., and 250 μg of beads were aliquoted per well of a 96-well plate. 5 μCi of [3H]-AQX-MN100 was added per well, the plate gently agitated for 30 min and the amount of bead associated radioactivity quantified by counting in a Wallac BETAPLATE™ plate scintillation counter. Results are representative of 3 independent experiments.

On to `Cc1cc(O)c(O)c2c1[C@]1(C)CC[C@H]3C(C)(C)CCC[C@]3(C)[C@H]1C2` [AQX-016A], for which the “IgE+antigen-induced calcium entry, SHIP1+/+ vs SHIP1−/− mast cells” value in test [1] was “inhibited IgE+antigen-induced calcium entry to a substantially greater degree in SHIP1+/+ than in SHIP1−/−”. Further, in test [2], the “phosphorylation of PKB, p38MAPK and ERK, SHIP1+/+ vs SHIP1−/− BMMCs” value was “inhibited the phosphorylation of PKB, p38MAPK and ERK in SHIP1+/+ but not in SHIP1−/−”.
Turning to `Cc1cc(O)cc2c1[C@]1(C)CC[C@H]3C(C)(C)CCC[C@]3(C)[C@H]1C2` [AQX-MN100], the “binding of [3H]-AQX-MN100 to wild-type SHIP1” value at wild-type SHIP1 enzyme is listed as “binds to wild-type SHIP1”.
